Three compounds from ChEMBL document CHEMBL4673314, “Stabilization Strategies for Linear Minigastrin Analogues: Further Improvements via the Inclusion of Proline into the Peptide Sequence” (J Med Chem, 2020) can be followed below.

Non-standard residues stand in square brackets, D forms with d. Residues, ends and D or L forms follow the SMILES beside them. *: point of attachment. DOTA = O=C(O)CN1CCN(CC(=O)O)CCN(CC(=O)*)CCN(CC(=O)O)CC1; 1Nal = N[C@@H](Cc1cccc2ccccc12)C(=O)O; NMeNle = CCCC[C@H](NC)C(=O)O

The nature of the data set: Retention time of the compound by HPLC method. The format is physicochemical.

Consider `CCCC[C@@H](C(=O)N[C@@H](CC(=O)O)C(=O)N[C@@H](Cc1cccc2ccccc12)C(N)=O)N(C)C(=O)[C@H](Cc1c[nH]c2ccccc12)NC(=O)[C@@H]1CCCN1C(=O)[C@H](Cc1ccc(O)cc1)NC(=O)[C@H](C)NC(=O)[C@@H](CCC(=O)O)NC(=O)CN1CCN(CC(=O)O)CCN(CC(=O)O)CCN(CC(=O)O)CC1` ({DOTA}-[dE]AYPW[NMeNle]D[1Nal]-NH2), for which the Retention_time worked out at 16.8 min.
As to `CCCC[C@@H](C(=O)N[C@@H](CC(=O)O)C(=O)N[C@@H](Cc1cccc2ccccc12)C(N)=O)N(C)C(=O)[C@H](Cc1c[nH]c2ccccc12)NC(=O)CNC(=O)[C@H](Cc1ccc(O)cc1)NC(=O)[C@@H]1CCCN1C(=O)[C@@H](CCC(=O)O)NC(=O)CN1CCN(CC(=O)O)CCN(CC(=O)O)CCN(CC(=O)O)CC1` ({DOTA}-[dE]PYGW[NMeNle]D[1Nal]-NH2), the Retention_time is on record as 16.9 min.
In turn, `CCCC[C@@H](C(=O)N[C@@H](CC(=O)O)C(=O)N[C@@H](Cc1cccc2ccccc12)C(N)=O)N(C)C(=O)[C@H](Cc1c[nH]c2ccccc12)NC(=O)CNC(=O)[C@@H]1CCCN1C(=O)[C@H](Cc1ccc(O)cc1)NC(=O)[C@@H](CCC(=O)O)NC(=O)CN1CCN(CC(=O)O)CCN(CC(=O)O)CCN(CC(=O)O)CC1` ({DOTA}-[dE]YPGW[NMeNle]D[1Nal]-NH2) yielded a Retention_time of 16.9 min.
